According to patent US6930208B2, “3-Keto- or 3- oxime-ether-substituted benzoylcyclohexanediones” (Bayer CropScience GmbH, priority 2002, dated 2005):

Key:
Assay in all cases: Plant tolerance (greenhouse, post-emergence)
Assay type in all cases: in vivo
Settings in all cases: visual scoring four to five weeks after application
[1] = system: rice
Description: (§1) Seeds of mono- and dicotyledonous harmful plants are placed in sandy loam in cardboard pots, covered with soil and grown in the greenhouse under good growth conditions. 2 to 3 weeks after sowing, the test plants are treated in the three-leaf stage. The compounds according to the invention, which are formulated as wettable powders or as emulsion concentrates, are sprayed at various dosages onto the surface of the green plant parts at an application rate of 600 to 800 l of water per ha (converted). After the test plants have been left to stand in the greenhouse for 3 to 4 weeks under optimal growth conditions, the effect of the compounds is scored visually. The chosen compounds according to the invention have an outstanding activity against a broad spectrum of economically important monocotyledonous and dicotyledonous harmful plants.
(§2) In further greenhouse experiments, seeds of crop plants and of monocotyledonous and dicotyledonous harmful plants are placed in sandy loam, covered with soil and placed in the greenhouse until the plants have developed two to three true leaves. Then, they are treated with the compounds of the formula (I) according to the invention as described above under item 1. […] Thus, for example, the compounds of examples Nos. 4.16 and 4.98 cause, at a dosage of 320 g/ha, no damage in wheat, rice and maize. The compounds of examples Nos. 1.4, 1.8, 4.16, 4.19 and 4.98 caused, at 80 g/ha, no damage in wheat, rice and maize.

[2] = system: maize
Description: as §1, §2

[3] = system: wheat
Description: as §1, §2

CCC(=O)COc1c(S(C)(=O)=O)ccc(C(=O)C2=C(O)CCCC2=O)c1Cl [Example 1.4]
no damage: damage in rice ([1]; 80 g/ha) | damage in maize ([2]; 80 g/ha) | damage in wheat ([3]; 80 g/ha)

CC1(C)CC(=O)C(C(=O)c2ccc(S(C)(=O)=O)c(OCC(=O)C(C)(C)C)c2Cl)=C(O)C1 [Example 1.8]
no damage: damage in rice ([1]; 80 g/ha) | damage in maize ([2]; 80 g/ha) | damage in wheat ([3]; 80 g/ha)

CCON=C(C)COc1c(S(C)(=O)=O)ccc(C(=O)C2=C(O)CCCC2=O)c1Cl [Example 4.16]
no damage: damage in rice ([1]; 80 g/ha) | damage in rice ([1]; 320 g/ha) | damage in maize ([2]; 80 g/ha) | damage in maize ([2]; 320 g/ha) | damage in wheat ([3]; 80 g/ha) | damage in wheat ([3]; 320 g/ha)

C=CCON=C(C)COc1c(S(C)(=O)=O)ccc(C(=O)C2=C(O)CCCC2=O)c1Cl [Example 4.19]
no damage: damage in rice ([1]; 80 g/ha) | damage in maize ([2]; 80 g/ha) | damage in wheat ([3]; 80 g/ha)

CCON=C(CC)COc1c(S(C)(=O)=O)ccc(C(=O)C2=C(O)CCCC2=O)c1Cl [Example 4.98]
no damage: damage in rice ([1]; 80 g/ha) | damage in rice ([1]; 320 g/ha) | damage in maize ([2]; 80 g/ha) | damage in maize ([2]; 320 g/ha) | damage in wheat ([3]; 80 g/ha) | damage in wheat ([3]; 320 g/ha)
